The test system of test [1] is […] (RICE). In kind it is in vivo, Pyricularia oryzae. The note with it: 100 ppm foliar spray plus root drench ca. 40 ppm a.i./dry soil; 1-2 days before inoculation.
Test [2] relates to VENTURIA INAEQUALS (APPLE). Kind of test: foliar fungal disease control test (Table III). In kind it is in vivo, Venturia inaequalis. To be noted: 100 ppm foliar spray plus root drench ca. 40 ppm a.i./dry soil; 1-2 days before inoculation. As for the experimental part: (§1) The compounds were tested against a variety of foliar fungal diseases of plants. The technique employed was as follows.
(§2) The plants were grown in John Innes Potting Compost (No 1 or 2) in 4 cm diameter minipots. The test compounds were formulated either by bead milling with aqueous Dispersol T or as a solution in acetone or acetone/ethanol which was diluted to the required concentration immediately before use. For the foliage diseases, the formulations (100 ppm active ingredient) were sprayed on to the foliage and applied to the roots of the plants in the soil. The sprays were applied to maximum retention and the root drenches to a final concentration equivalent to approximately 40 ppm a.i./dry soil. Tween 20, to give a final concentration of 0.05%, was added when the sprays were applied to cereals.
(§3) For most of the tests the compound was applied to the soil (roots) and to the foliage (by spraying) one or two days before the plant was inoculated with the disease. An exception was the test on Erysiphe graminis in which the plants were inoculated 24 hours before treatment. Foliar pathogens were applied by spray as spore suspensions onto the leaves of test plants. After inoculation, the plants were put into an appropriate environment to allow infection to proceed and then incubated until the disease was ready for assessment. The period between inoculation and assessment varied from four to fourteen days according to the disease and environment.
(§4) The disease control was recorded by the following grading: […]

Test [3] relates to Meloidogyne incognita (tomato root-knot eelworm larvae). In words: nematocidal activity.
The subject of test [4] is […] (VINE). Kind of test: foliar fungal disease control test (Table III). In kind it is in vivo, Plasmopara viticola. The note with it: 100 ppm foliar spray plus root drench ca. 40 ppm a.i./dry soil; 1-2 days before inoculation. How it is done:
as §1, §2, §3, §4

The subject of test [5] is PUCCINIA RECONDITA (WHEAT). Kind of test: foliar fungal disease control test (Table III). To be noted: 100 ppm foliar spray plus root drench ca. 40 ppm a.i./dry soil; 1-2 days before inoculation. In kind it is in vivo. As for the experimental part:
as §1, §2, §3, §4

The subject of test [6] is CERCOSPORA ARACHIDICOLA (PEANUT). Kind of test: foliar fungal disease control test (Table III). In kind it is in vivo. To be noted: 100 ppm foliar spray plus root drench ca. 40 ppm a.i./dry soil; 1-2 days before inoculation. As for the experimental part: as §1, §2, §3, §4
The subject of test [7] is ERYSIPHE GRAMINIS (BARLEY). Kind of test: foliar fungal disease control test (Table III). In kind it is in vivo. To be noted: 100 ppm foliar spray plus root drench ca. 40 ppm a.i./dry soil; inoculated 24 hours before treatment. How it is done: as §1, §2, §3, §4
The test system of test [8] is PH[…] (TOMATO). In kind it is in vivo, Phytophthora infestans. To be noted: for disease control grading, PH[…] (TOMATO): 100 ppm foliar spray plus root drench ca. 40 ppm a.i./dry soil, 1-2 days before inoculation.
The subject of test [9] is Tomato. In words: whole plant screen for plant growth regulating activity. In kind it is in vivo, Tomato (Ailsa Craig). How it is done: (§5) These compounds were tested on a whole plant screen for plant growth regulating activity against six species of plant. The plant species used in this screen are presented in Table IV with the leaf stage at which they were sprayed.
(§6) A formulation of each chemical was applied at 4000 ppm (4 kg/ha in a 1000 l/ha field volume) using a tracksprayer and a SS8004E (Teejet) nozzle. Additional tests were done on tomatoes at 2000 and 500 ppm.
(§7) After spraying, the plants were grown in a glasshouse with 25° C. day/22° C. night temperatures. The exceptions to this were the temperate cereals wheat and barley, which were grown in 13°-16° C. day/11°-13° C. night temperatures. Supplementary lighting was supplied when necessary to provide an average photoperiod of 16 hours (14 hours minimum).
(§8) After 2-6 weeks in the glasshouse, depending on species and time of year, the plants were visually asessed for morphological characteristics against a control plant sprayed with a blank formulation.

Test [10] deals with Diabrotica balteata (root worm larvae). In words: insecticidal activity.
The test system of test [11] is Barley. In words: whole plant screen for plant growth regulating activity. In kind it is in vivo, Barley (Atem). The note with it: 4000 ppm (4 kg/ha), assessed after 2-6 weeks. As for the experimental part:
as §5, §6, §7, §8

As for `CO/C=C(/C(=O)OC)c1cccnc1Oc1ccccc1` [Compound 15, (E)-methyl-2-(2'-phenoxypyrid-3'-yl)-3-methoxyacrylate], the “disease control grading, […] (RICE)” value in [1] was determined as 4. Further, the “disease control grading, VENTURIA INAEQUALS (APPLE)” value (from here on “disease control grading … (APPLE)”) in [2] was 4. Further, the “activity against Meloidogyne incognita” value in test [3] was “active”. For the same molecule, in [4], the “disease control grading, […] (VINE)” value was 4. The “disease control grading, PUCCINIA RECONDITA (WHEAT)” value (from here on “disease control grading … (WHEAT)”) in [5] was 4. Further, the “disease control grading, CERCOSPORA ARACHIDICOLA (PEANUT)” value (from here on “disease control grading … (PEANUT)”) in test [6] worked out at 4. Further, in [7], the “disease control grading, ERYSIPHE GRAMINIS (BARLEY)” value (“disease control grading … (BARLEY)” for short) was determined as 4. Besides, in test [8] (100 ppm root drench only), the “disease control grading, PH[…] (TOMATO), root drench only” value is 4.
Regarding `CO/C=C(/C(=O)OC)c1cccnc1Oc1ccc(C)cc1` [Compound 19], the “disease control grading, […] (RICE)” value in [1] was 4. Further, in test [2], the “disease control grading … (APPLE)” value came out at 4. Moreover, the “disease control grading, […] (VINE)” value in test [4] stood at 4. Further, the “disease control grading … (WHEAT)” value in [5] is recorded as 4. For the same molecule, the “disease control grading … (PEANUT)” value in test [6] was 4. Further, the “disease control grading … (BARLEY)” value in test [7] turned out to be 4. For the same molecule, the “plant growth regulating effect, TO” value in test [9] (4000 ppm (4 kg/ha), assessed after 2-6 weeks) is given as 2GAT. Also, the “disease control grading, PH[…] (TOMATO)” value in test [8] is listed as 0 (60-100% of disease on untreated plants).
As for `CO/C=C(/C(=O)OC)c1cccnc1Oc1cccc(Cl)c1` [Compound 23], in test [1], the “disease control grading, […] (RICE)” value was determined as 4. Also, the “disease control grading … (APPLE)” value in [2] stood at 4. Moreover, in [10], the “activity against Diabrotica balteata” value was “active”. Also, the “disease control grading, […] (VINE)” value in [4] came to 4. Also, the “disease control grading … (WHEAT)” value in [5] was found to be 4. Also, in [6], the “disease control grading … (PEANUT)” value stood at 4. The “disease control grading … (BARLEY)” value in [7] is recorded as 4. The “plant growth regulating effect, TO+” value in [9] (500 ppm) is recorded as 2G. For the same molecule, the “disease control grading, PH[…] (TOMATO)” value in test [8] came out at 4.
Take `CO/C=C(/C(=O)OC)c1ccncc1Oc1ccccc1` [Compound 43, (E)-methyl-2-(3'-phenoxypyrid-4'-yl)-3-methoxyacrylate]: the “plant growth regulating effect, BR” value in [11] turned out to be 2T.
